For one assay, the target named is ROCK2 (Homo sapiens (Human), UniProt O75116). In words: ROCK2 Kinase Activity Assay (HTRF KinEASE-STK S2 kit). It is filed as biochemical. How it is done:
The kinase IC50 was determined by a commercialized CISBIO kinase detection kit, HTRF KinEASE-STK S2 kit (62ST2PEC). ROCK2 (01-119) employed in the reaction was purchased from Carna Biosciences.
Before the assay, the following working solutions as needed were formulated with corresponding reagents according to the instruction of the kinase detection kit: 1×kinase buffer, 5×STK-S2 substrate working solution (1.5 μM) and 5×ATP working solution (1.5 μM), 5×ROCK2 kinase working solution, 4×Streptavidin-XL665 working solution, and 4×STK-Ab-Cryptate 2 detection solution. Then the assay was performed according to the following procedure.
A solution of a compound at a concentration of 10000 nM was prepared with the 1×kinase buffer containing 2.5% DMSO. Gradient dilution of the solution of the compound was performed with the kinase buffer containing DMSO, so as to obtain solutions of a test compound at 9 different concentrations. In addition to wells of test compounds, a positive well (containing all the reagents except the compound) and a negative well (containing all the reagents except the test compound and kinase) were set. Except for the control wells (positive and negative wells), a solution of a test compound (4 μL) was added to each of the reaction wells, and a solution of 2.5% DMSO was added to the control wells. Then the substrate (2 μM, i.e., 2 μL 5×STK-S2 substrate working solution) was added to each of the reaction wells. The 5×ROCK2 kinase working solution (2 μL, containing 1.4 ng ROCK2 kinase) was added to each of the reaction wells except for the negative well, the volume of which was made up with the 1×kinase buffer (2 μL). The 5×ATP working solution (2 μL) was added to each of the reaction wells, and the mixtures were incubated at room temperature for 2 hours. After the kinase reaction was complete, the 4×Streptavidin-XL665 working solution was added to each of the reaction wells, the solutions were mixed, followed by immediate addition of the 4×STK-Ab-Cryptate 2 detection solution (5 μL), and the mixtures were incubated at room temperature for 1 hour. The fluorescence signal was read on ENVISION (Perkinelmer) (excitation wavelength: 320 nm, and emission wavelength: 665 nm and 615 nm). The inhibitory rate in each well was calculated based on the fluorescence intensity value: ER (Emission Ratio)=(fluorescence intensity at 665 nm/fluorescence intensity at 615 nm); inhibitory rate=(ERpositive−ERtest compound)/(ERpositive−ERnegative)*100%. Curves were plotted and fitted to obtain the median inhibitory concentration (IC50) of each teat compound with the PRISM 5.0 software.
(In general: Time-resolved FRET reads energy transfer from a long-lived donor to a nearby acceptor.)

Assay [1] deals with irradiated BALB/c recipient mice infused with C57BL/6 donor bone marrow and spleen cells. In words: Therapeutic effect in mice: allogeneic bone marrow/spleen cell transplantation GVHD model, survival rate. Type of assay: in vivo. The settings on record: 30 mpk oral gavage once daily for 23 days, compared with the model group. How it is done:
Male BALB/c recipient mice were irradiated with 8.5 Gy of total body irradiation (TBI) (Gammacell 40, NORPION International Co., Ltd., irradiation source: ^137Cs). A suspension of bone marrow cells (BMC) and spleen cells (SC) from C57BL/6 (H-2b) donor mice was prepared and infused via tail vein to irradiated BALB/c recipient mice at 0.5 mL/per mouse (containing 10×10^6 bone marrow cells and 6.25×10^6 spleen cells from the allogeneic C57BL/6 (H-2b) donor mice). Subsequently, the BALB/c mice were randomly divided into two groups: a model group (G2) and a compound 007 group (G3). An irradiation group (G4) (i.e., receiving ^137Cs irradiation only without donor mouse cell suspension infusion) and a syngeneic bone marrow transplantation group (G1) (a suspension containing 10×10^6 bone marrow cells from syngeneic BALB/c mice was administered to mice in this group via tail vein infusion). G1-G4 groups comprised 9 mice per group. The mice in the model group, the irradiation group and the syngeneic bone marrow transplantation group were administered with vehicle (a 0.2% Tween-80 aqueous solution) by oral gavage, once a day for 23 days. The mice in the compound 007 group were administered with 30 mpk of compound 007 by oral gavage, once daily for 23 days from the first day of model establishment. The survival rate of the animals was recorded daily.

Assay [2] relates to CD4 Naïve T cells from BALB/c mice mixed with C57BL/6 dendritic cells. Briefly: Allogeneic Mixed Lymphocyte Reaction, inflammatory factors in supernatant. Type of assay: cell-based, mouse. The settings on record: 125 nM, 250 nM, 500 nM, 1000 nM; 5 days of culture; compared with control group. How it is done: Bone marrow cells from C57BL/6 (B6) mouse were isolated and incubated with granulocyte-macrophage colony stimulating factor (GM-CSF, 20 ng/mL, Biolegend, 713704) and interleukin-4 (IL-4, 10 ng/mL, Biolegend, 10715004) for 7 days, followed by addition of 20 ng/mL lipopolysaccharide (LPS) and incubation for 24 hours, the dendritic cells (DC) were collected. The CD4 Naïve T cells from BALB/c mice were extracted and isolated with a commercial kit (Dakewe, 480039). […] CD4 Naïve T cells and 25×10^3 DC cells were mixed and cultured. Compound 007 was added to the mixed cells at four concentrations (125 nM, 250 nM, 500 nM, and 1000 nM), respectively, and a control group (to which an equal amount of the medium was added) was set. After 5 days of culture, the supernatants were collected and kits were employed for the detection of inflammatory factors (IL-6 (Duyou, 1210602), TNF-α (Duyou, 1217202), IFN-γ (Duyou, 1210002), and IL-2 (Duyou, 1210202)).

Sequence of ROCK2 (O75116 1-553 limits assumed): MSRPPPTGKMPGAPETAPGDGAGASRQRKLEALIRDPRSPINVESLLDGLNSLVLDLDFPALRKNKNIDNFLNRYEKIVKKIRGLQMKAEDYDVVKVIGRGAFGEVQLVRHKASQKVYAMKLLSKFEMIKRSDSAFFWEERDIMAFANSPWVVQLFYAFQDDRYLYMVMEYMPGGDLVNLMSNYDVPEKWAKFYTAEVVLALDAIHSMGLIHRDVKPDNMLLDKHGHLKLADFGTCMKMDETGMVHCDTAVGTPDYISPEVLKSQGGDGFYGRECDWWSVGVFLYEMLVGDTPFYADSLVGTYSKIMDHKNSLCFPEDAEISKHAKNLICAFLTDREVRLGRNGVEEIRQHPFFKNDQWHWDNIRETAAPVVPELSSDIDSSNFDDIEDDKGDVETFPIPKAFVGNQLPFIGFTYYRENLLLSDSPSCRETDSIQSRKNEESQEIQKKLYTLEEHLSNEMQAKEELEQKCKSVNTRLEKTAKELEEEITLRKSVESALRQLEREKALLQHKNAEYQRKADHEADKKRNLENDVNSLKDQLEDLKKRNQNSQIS

On ROCK2, `O=C(c1cc2ccc(-c3nccc(Nc4ccc(-c5cn[nH]c5)cc4)n3)cc2[nH]1)N1CC(F)(F)C1` [Compound 006] returned a concentration for half-maximal inhibition (IC50) of 0.034 µM. This counts as double-digit nanomolar.

Take `Fc1cc(Nc2ccnc(-c3ccc4cc(-c5nccs5)[nH]c4c3)n2)ccc1-c1cn[nH]c1` [Compound 128]: the 50% inhibitory concentration (IC50) against ROCK2 amounted to 0.027 µM.

At ROCK2, `O=C(N1Cc2ccc(-c3nccc(Nc4ccc(-c5cn[nH]c5)cc4)n3)cc2C1)N1CC(F)(F)C1` [Compound 022] registered an IC50 of 0.075 µM. Against the preceding compound, the IC50 is about 2.8-fold higher.

At ROCK2, `O=C(c1cc2ccc(-c3ncc(F)c(Nc4ccc(-c5cn[nH]c5)cc4)n3)cc2[nH]1)N1CC(F)(F)C1` [Compound 008] showed a half-maximal inhibitory concentration (IC50) of 0.024 µM.

`O=C(C1CC(F)(F)C1)N1Cc2ccc(-c3ncc(F)c(Nc4ccc(-c5cn[nH]c5)cc4)n3)cc2C1` [Compound 021] gave a half-maximal inhibitory concentration (IC50) against ROCK2 of 0.045 µM.

For the compound `Cn1c(C(=O)N2CC(F)(F)C2)cc2ccc(-c3nccc(Nc4ccc(-c5cn[nH]c5)cc4)n3)cc21` [Compound 007], in assay [1], the survival rate entry is listed as “significantly improved the survival rate”. At ROCK2, this compound showed a half-inhibitory concentration (IC50) of 0.033 µM. In assay [2], the “levels of the inflammatory factors (IL-6, TNF-α, IFN-γ, IL-2)” value is “significantly reduced the levels of the inflammatory factors”.

On to `O=C(C1CC(F)(F)C1)N1Cc2ccc(-c3nccc(Nc4ccc(-c5cn[nH]c5)cc4)n3)cc2C1` [Compound 020], for which half-maximal inhibition against ROCK2 (IC50) required 0.044 µM.

For the compound `O=C(c1cc2ccc(-c3nccc(Nc4ccc(-c5cn[nH]c5)c(F)c4)n3)cc2[nH]1)N1CC(F)(F)C1` [Compound 010], on ROCK2, the IC50 is 0.061 µM.

As for `Cn1c(C(=O)N2CC(F)(F)C2)cc2ccc(-c3nccc(Nc4ccc(-c5cn[nH]c5)c(F)c4)n3)cc21` [Compound 011], the IC50 against ROCK2 was found to be 0.009 µM.

As for `Cn1c(C(=O)N2CC(F)(F)C2)cc2ccc(-c3ncc(F)c(Nc4ccc(-c5cn[nH]c5)cc4)n3)cc21` [Compound 009], inhibition at ROCK2 was half-maximal at 0.012 µM (IC50).

As usually defined, the IC50 is the midpoint of a concentration-inhibition curve. A lower IC50 goes with greater potency in that assay.
